Twelve compounds from the Kinase Knowledgebase extract (Sharma et al. 2016) can be followed below.

EGFR, sequence (P00533 whole entry, looked up): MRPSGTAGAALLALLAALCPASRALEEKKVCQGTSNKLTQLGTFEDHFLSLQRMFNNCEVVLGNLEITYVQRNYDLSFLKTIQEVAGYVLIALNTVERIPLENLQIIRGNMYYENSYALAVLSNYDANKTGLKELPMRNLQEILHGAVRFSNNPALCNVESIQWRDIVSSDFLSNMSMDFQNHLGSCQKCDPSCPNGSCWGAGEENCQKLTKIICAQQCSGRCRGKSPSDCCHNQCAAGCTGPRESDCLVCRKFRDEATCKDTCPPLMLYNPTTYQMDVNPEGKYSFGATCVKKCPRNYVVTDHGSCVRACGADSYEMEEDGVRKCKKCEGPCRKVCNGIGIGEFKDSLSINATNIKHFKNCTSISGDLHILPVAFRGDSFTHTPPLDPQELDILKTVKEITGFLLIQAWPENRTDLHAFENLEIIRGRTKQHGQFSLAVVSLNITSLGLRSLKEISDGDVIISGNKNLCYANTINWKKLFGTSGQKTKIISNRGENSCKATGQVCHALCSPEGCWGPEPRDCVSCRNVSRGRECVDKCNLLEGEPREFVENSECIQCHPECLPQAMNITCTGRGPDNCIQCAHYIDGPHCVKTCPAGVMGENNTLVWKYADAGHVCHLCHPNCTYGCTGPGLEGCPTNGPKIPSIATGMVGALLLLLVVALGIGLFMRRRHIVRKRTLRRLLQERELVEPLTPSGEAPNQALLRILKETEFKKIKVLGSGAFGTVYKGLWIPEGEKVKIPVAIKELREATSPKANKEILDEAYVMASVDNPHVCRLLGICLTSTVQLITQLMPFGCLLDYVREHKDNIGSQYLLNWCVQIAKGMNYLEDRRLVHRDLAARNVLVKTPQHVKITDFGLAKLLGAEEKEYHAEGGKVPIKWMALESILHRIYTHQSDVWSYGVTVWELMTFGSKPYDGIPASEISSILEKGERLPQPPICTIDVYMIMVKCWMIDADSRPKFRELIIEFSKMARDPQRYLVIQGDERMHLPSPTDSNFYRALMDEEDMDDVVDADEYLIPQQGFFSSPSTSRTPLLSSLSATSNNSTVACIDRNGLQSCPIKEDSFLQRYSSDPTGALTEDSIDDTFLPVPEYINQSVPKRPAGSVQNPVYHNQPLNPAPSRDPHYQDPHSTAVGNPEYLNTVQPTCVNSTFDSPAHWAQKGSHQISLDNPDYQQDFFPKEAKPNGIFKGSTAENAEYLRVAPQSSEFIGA

The first experiment has as its target EGFR (UniProt P00533).
Conditions: not given
Compound `COc1cc2c(Nc3cccc(Cl)c3F)ncnc2cc1O[C@@H]1CCN(C(=O)C2CCC(=O)N2)C1` (stereo partly drawn) showed an IC50 of 41 nM.

The target of another experiment is EGFR (human) (UniProt P00533). The conditions noted are these: kb epidermoid nasopharynx.
EGFR (human), sequence (P00533 whole entry, looked up): as above
In turn, `COc1cc2c(Nc3cccc(Cl)c3F)ncnc2cc1OC1CN(C(=O)[C@H](C)O)C1` had an IC50 of 71 nM. Same read-out and setting: to `COc1cc2c(Nc3cccc(Cl)c3F)ncnc2cc1OC1CCN(C(=O)CCO)CC1` belongs 109 nM. The same measure, in the same setting: the same measure for `COCC(=O)N1CC[C@@H](Oc2cc3ncnc(Nc4cccc(Cl)c4F)c3cc2OC)C1`: 119 nM; for `COCC(=O)N1CCC(Oc2cc3ncnc(Nc4cccc(Cl)c4F)c3cc2OC)CC1`: 55 nM; for `COc1cc2ncnc(Nc3cccc(Cl)c3F)c2cc1CN1CSC[C@H]1C(N)=O`: 50 nM. Same read-out and setting: the same measure for `COCCOCC(=O)N1CCC(Oc2cc3ncnc(Nc4cccc(Cl)c4F)c3cc2OC)CC1`: 112 nM; for `COc1cc2c(Nc3cccc(Cl)c3F)ncnc2cc1OC1CN(C(=O)[C@@H](C)O)C1`: 48 nM; for `COc1cc2ncnc(Nc3ccc(F)c(Cl)c3)c2cc1CN1CCC[C@@H]1C(=O)NCC#N`: 143 nM.

In turn, `COCCN1CCN(Cc2cc3c(Nc4cccc(Cl)c4F)ncnc3cc2OC)C(C(N)=O)C1` (stereo not drawn) came in with an IC50 of 160 nM. In turn, `COc1cc2c(Nc3cccc(Cl)c3F)ncnc2cc1O[C@@H]1CCN(C(=O)C2CCC(=O)N2)C1` (stereo partly drawn) returned an IC50 of 397 nM.

`COCCC(=O)N1CCC(Oc2cc3ncnc(Nc4cccc(Cl)c4F)c3cc2OC)CC1` gave an IC50 of 84 nM. `COc1cc2c(Nc3cccc(Cl)c3F)ncnc2cc1OC1CCN(C(=O)CO)CC1` came in with an IC50 of 37 nM.
